Source: patent US20060251705A1 (Wyeth, priority 2005, published 2006)

Legend:
Assay type in all cases: physicochemical
[1] = Simulated Y-site compatibility: subvisible particulates by light obscuration (HIAC, USP 788); settings: for Subvisible Particulates (HIAC) ≧10 μm / Subvisible Particulates (HIAC) ≧25 μm: each before mixing, 0 hours; for HIAC ≧10 μm / HIAC ≧25 μm: each solution before mixing, 0 Hours
Excerpt: Sub-visible particulate formation may be measured by light obscuration (HIAC) as per United States Pharmacopeia USP Chapter 788 Particulate Matter in Injections.
This time period has become standard when performing these “simulated Y-site” studies, although the actual residence time for the two solutions in the administration set may not exceed eight minutes prior to entering the venous system.
The acceptance criteria of “no incompatibility indicating change” over the four hour evaluation period is being applied to the Appearance and Description assay as well as the HIAC subvisible particulate assay. Thus, for instance, formation of visible particulates or increase of subvisible particulates would indicate an incompatibility and would result in a “Y-site incompatible” classification for that diluent or drug. In addition to the Appearance and Description and HIAC testing, the pH of the solutions are monitored “for information only.” Before mixing of the two test solutions together; Appearance and Description, HIAC subvisible particulate testing, and pH are determined on each as controls.
(§1) Testing of Controls • 1. […] The remaining volumes of the two test articles are used immediately.
(§2) Preparation and Testing of Combined Solutions • 1. […] Approximately 30 ml of the combined solution is immediately removed for 0 hour Appearance and Description, subvisible particulates by HIAC and pH testing. The beaker with the remaining solution is then recovered with Parafilm and the headspace flushed with nitrogen. • 2. The sampling and testing of 30 ml aliquots is repeated after one and four hours.
The following tests are performed immediately after sampling: • 1. Appearance and Description for color, visible particulates, and turbidity measured using a Black and White background light box with a fluorescent lamp capable of producing intensity of illumination between 2000 and 3750 lux. • 2. Sub visible particulates are measured by light obscuration (HIAC) as per United States Pharmacopeia USP Chapter 788 Particulate Matter in Injections.
(§3) All drug products are prepared per package insert directions; some drugs having wide therapeutic ranges are tested at multiple concentrations, and some drugs with different formulations are tested. A simulation of the mixing which would occur at an intravenous administration set Y-site is used, and the period for evaluation of compatibility exaggerated the generally short time that the two agents would be together prior to venous circulation. Test solutions before and after mixing are measured by visual observation, by light obscuration for subvisible particulates (HIAC), and by potentiometry over a four hour period.

[2] = Simulated Y-site compatibility: pH by potentiometric meter
Method: (§4) The acceptance criteria of “no incompatibility indicating change” over the four hour evaluation period is being applied to the Appearance and Description assay as well as the HIAC subvisible particulate assay. […] In addition to the Appearance and Description and HIAC testing, the pH of the solutions are monitored “for information only.” Before mixing of the two test solutions together; Appearance and Description, HIAC subvisible particulate testing, and pH are determined on each as controls.
as §1, §2
pH is measured using a potentiometric meter capable of measuring pH values reproducibly within 0.02 pH units and having electrodes suitable for pH meter use.
as §3

[3] = Compatibility classification of intravenous diluents and drugs under simulated Y-site conditions with Tigecycline for Injection; settings: Dobutamine final concentration 1.0 mg/ml, mixed with Tigecycline for Injection, four hour period
Method: as §3

[4] = Compatibility of tigecycline with heparin (simulated Y-site study, overall finding); settings: common point of administration, e.g. Y-site, without saline flush
Method: A study is performed to determine the compatibility of tigecycline solutions with heparin. Heparin is prepared for this study as per the directions given in the package insert. The compatibility testing is performed using a “simulated Y-site” technique developed and published by Trissel et. al. “Compatibility of Fenoldopam Mesylate with other Drugs during Simulated Y-site Administration, Am. J. Health-System Pharmacy, Vol. 60, 80-85, 2003; Trissel, et. al. “Physical Compatibility of Antithymocyte Globulin (Rabbit) with Heparin Sodium and Hydrocortisone Sodium, Vol. 60, 1650-1652, 2003; Trissel et. al. “Compatibility Screening of Bivalirudin during Simulated Y-site Administration with Other Drugs, and Trissel et. al. “Compatibility of piperacillin sodium plus tazobactum with selected drugs during simulated Y-site injection, Am. J. Hosp. Pharm., Vol. 51, 672-678, 1994. […]
as §4

[5] = Table 4: Tigecycline and Dobutamine solutions
[6] = Table 4: Tigecycline and Dobutamine solutions, each before mixing, 0 hours
[7] = Table 1: Tigecycline 1 mg/mL in NS, Heparin 10 Units/ml in NS
[8] = Table 2: Tigecycline 1 mg/mL in NS, Heparin 100 Units/ml in NS
[9] = Table 5: Tigecycline and Dopamine solutions
[10] = Table 6: Tigecycline and Chlorpromazine solutions
[11] = Table 5: Tigecycline and Dopamine solutions, each before mixing, 0 hours

Row | Subvisible Particulates (HIAC) ≧10 μm [1, 5] [particles/ml] | Subvisible Particulates (HIAC) ≧25 μm [1, 5] [particles/ml] | pH [2, 6] | Compatibility Classification [3] | HIAC ≧10 μm [1, 7] [particles/mL] | HIAC ≧25 μm [1, 7] [particles/mL] | HIAC ≧10 μm [1, 8] [particles/mL] | HIAC ≧25 μm [1, 8] [particles/mL] | Subvisible Particulates (HIAC) ≧10 μm [1, 9] [particles/ml] | Subvisible Particulates (HIAC) ≧25 μm [1, 9] [particles/ml] | Subvisible Particulates (HIAC) ≧10 μm [1, 10] [particles/ml] | Subvisible Particulates (HIAC) ≧25 μm [1, 10] [particles/ml] | pH ([2]; Table 2: Tigecycline 1 mg/mL in NS, Heparin 100 Units/ml in NS, each solution before mixing, 0 Hours) | pH [2, 11] | compatibility with the administration of heparin [4] | pH ([2]; Table 6: Tigecycline and Chlorpromazine solutions, each before mixing, 0 hours) | Compound
1 | 5.9 | 0.6 | 4.18 | Compatible |  |  |  |  |  |  |  |  |  |  |  |  | CC(CCc1ccc(O)cc1)NCCc1ccc(O)c(O)c1 (stereo not drawn) [Dobutamine, reference compound]
2 | 35.8 | 0.9 | 7.81 |  | 39.3 | 1.4 | 69.1 | 6.2 | 82.3 | 2.2 | 27.4 | 1.3 | 7.82 | 7.84 | compatible |  | CN(C)c1cc(NC(=O)CNC(C)(C)C)c(O)c2c1C[C@H]1C[C@H]3[C@H](N(C)C)C(O)=C(C(N)=O)C(=O)[C@@]3(O)C(O)=C1C2=O [Tigecycline, (4S,4aS,5aR,12aS)-9-[2-(tert-butylamino)acetamido]-4,7-bis(dimethylamino)-1,4,4a,5,5a,6,11,12a-octahydro-3,10,12,12a-tetrahydroxy-1,11-dioxo-2-naphthacenecarboxamide]
3 |  |  |  |  |  |  |  |  |  |  | 21.9 | 2.9 |  |  |  | 4.61 | CN(C)CCCN1c2ccccc2Sc2ccc(Cl)cc21 [Chlorpromazine, reference compound]
4 |  |  |  |  |  |  |  |  | 3.1 | 0.1 |  |  |  | 3.59 |  |  | NCCc1ccc(O)c(O)c1 [Dopamine, reference compound]
